Read-outs that look alike come from different tables or passages of the source.
How the values were obtained:
[1] = system: E. coli MG1655 (DE3), pCDF-ACC (strain N); format: cell-based; conditions: ACC overexpressed strain; MOPS medium with 200 mM succinic acid, 10 mM triacetic acid lactone, 300 mM NaCl or 480 mM sucrose
Method: (§1) Seed culture: Monoclones of the MG1655 (DE3), pCDF-bauA-mcrC (strain L), monoclones of the MG1655 (DE3), pCDF-duet (strain M) and monoclones of the MG1655 (DE3), pCDF-ACC (strain N) were selected respectively to be inoculated into a 15 mL test tube containing 5 mL of an MOPS medium, the medium containing spectinomycin (a final concentration of 50 μg/mL). Culture was carried out at 220 r and 37° C. until the OD550 is around 1.5 to 1.8 to be used as a seed solution.
(§2) Medium used for tolerance testing: IPTG (a final concentration of 0.1 mM) and spectinomycin (a final concentration of 50 μg/mL) were added into an MOPS medium (containing […] glucose); then, inhibitors were added, and the selected inhibitors and final concentrations thereof were formic acid (100 mM), acetic acid (50 mM), caproic acid (10 mM), lactic acid (500 mM), succinic acid (200 mM), glucose (100 μg/L), sucrose (480 mM), octanoic acid (10 mM), citric acid (200 mM), vanillic acid (3 μg/L), and triacetic acid lactone (TAL, 1.25 μg/L).
(§3) The seed solution was inoculated at a ratio of initial OD550=0.1 into a medium for tolerance test. After inoculation was completed, shaking for even mixing was carried out. 200 μL of the same was pipetted to a 96-well plate. By using a continuous kinetic assay method, OD550 was determined every 10 minutes with a microplate reader (Biotek), to determine the growth curve of the strain. The specific growth rate […] can be obtained by calculation of the exponential growth phase OD550T, cultivation time T, and initial OD550O.

[2] = system: E. coli MG1655 (DE3), pCDF-bauA-mcrC (strain L); format: cell-based; conditions: for biomass (OD550): NCM pathway overexpressed strain, MOPS medium with 200 mM succinic acid, 10 mM triacetic acid lactone, 300 mM NaCl or 480 mM sucrose; for increase of biomass of NCM strain compared to the ACC overexpressed strain / increase of biomass of NCM strain compared to the reference strain: same stressor concentrations as OD550 values
Method: as §1, §2, §3

[3] = system: E. coli MG1655 (DE3), pCDF-duet (strain M); experiment: Tolerance test, growth (OD550) of reference strain; format: cell-based; conditions: MOPS medium with 200 mM succinic acid, 10 mM triacetic acid lactone, 300 mM NaCl or 480 mM sucrose
Method: as §1, §2, §3

[4] = system: artificial NCM pathway; experiment: Effect of inhibitors of natural synthesis pathways on the NCM in-vitro reaction system; format: biochemical
Method: It can be seen that the BauA has the best effect (FIG. 4A).
Natural PDH-ACC pathways are strictly regulated by many factors, such as high levels of intracellular ATP severely reducing the activity of PDH. When ADP/ATP=1, the activity of PDH is only 10% of that when ADP/ATP=20 (Hansford R G et al., 1976). Acetyl-CoA is also an inhibitor of PDH. When acetyl-CoA reaches 2 mM, the activity of PDH decreases by 70%. Long-chain fatty acyl-CoA, such as palmitoyl-CoA, is an inhibitor of ACC. […] palmitoyl-CoA can cause an 80% decrease in ACC activity. In the above NCM in-vitro reaction system, ATP and ADP (ATP+ADP=3.75 mM, ADP/ATP was +00, 10, 1, and 0.1, respectively) (FIG. 6A), acetyl-CoA (0, 0.5, 1, and 2 mM) (FIG. 6B), and palmitoyl-CoA ([…]) (FIG. 6C) were added, respectively.

[5] = system: PDH; conditions: cited from earlier work

SMILES | biomass (OD550) [1] | biomass (OD550) [2] | increase of biomass of NCM strain compared to the ACC overexpressed strain [2] [%] | increase of biomass of NCM strain compared to the reference strain [2] [%] | biomass (OD550) [3] | also measured
Cc1cc(O)cc(=O)o1 [triacetic acid lactone] | 0.29 | 0.81 | 180 | 30 | 0.62 | 
CCCCCCCCCCCCCCCC(=O)SCCNC(=O)CCNC(=O)[C@H](O)C(C)(C)COP(=O)(O)OP(=O)(O)OC[C@H]1O[C@@H](n2cnc3c(N)ncnc32)[C@H](O)[C@@H]1OP(=O)(O)O [palmitoyl-CoA] |  |  |  |  |  | inhibitory effect on the artificial NCM pathway ([4]; palmitoyl-CoA 0, 0.24, 0.48, 0.96, 2.4 and 24 M): no inhibitory effect
Nc1ncnc2c1ncn2[C@@H]1O[C@H](COP(=O)(O)OP(=O)(O)OP(=O)(O)O)[C@@H](O)[C@H]1O [ATP] |  |  |  |  |  | inhibitory effect on the artificial NCM pathway ([4]; ATP+ADP=3.75 mM, ADP/ATP +00, 10, 1 and 0.1): no inhibitory effect; decrease in PDH activity ([5]; ADP/ATP equal to 1): 90%; activity of PDH relative to that when ADP/ATP=20 ([5]; ADP/ATP=1): 10%
OC[C@H]1O[C@@](CO)(O[C@H]2O[C@H](CO)[C@@H](O)[C@H](O)[C@H]2O)[C@@H](O)[C@@H]1O [sucrose] | 0.23 | 0.96 | 320 | 26 | 0.77 | 
[Cl-].[Na+] [NaCl] | 0.24 | 0.76 | 214 | 29 | 0.59 | 
O=C(O)CCC(=O)O [succinic acid] | 0.20 | 0.60 |  | 100 | 0.30 | 
CC(=O)SCCNC(=O)CCNC(=O)[C@H](O)C(C)(C)COP(=O)(O)OP(=O)(O)OC[C@H]1O[C@@H](n2cnc3c(N)ncnc32)[C@H](O)[C@@H]1OP(=O)(O)O [acetyl-CoA] |  |  |  |  |  | inhibitory effect on the artificial NCM pathway ([4]; acetyl-CoA 0, 0.5, 1 and 2 mM): no inhibitory effect; decrease in PDH activity ([5]; 2 mM acetyl-CoA): 70%

Reference: patent US20250066826A1, “ARTIFICIAL SYNTHESIS METHOD FOR MALONYL-COENZYME A (COA) AND USE THEREOF” (SHANGHAI JIAO TONG UNIVERSITY, priority 2023, published 2025)
